PubChem BioAssay (NCI)
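Each compound was tested at five concentrations against cells in 96-well plates for 48 hours. TGI: concentration producing complete growth inhibition.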

Assays:
Assay in all cases: NCI anticancer screen, dose series, 48 h
786-0 renal = tested on: 786-0 renal
A498 renal = tested on: A498 renal
A549 NSCLC = tested on: A549 NSCLC
ACHN renal = tested on: ACHN renal
BT-549 breast = tested on: BT-549 breast
CAKI-1 renal = tested on: CAKI-1 renal
CCRF-CEM leukemia = tested on: CCRF-CEM leukemia
COLO 205 colon = tested on: COLO 205 colon
DU-145 prostate = tested on: DU-145 prostate
EKVX NSCLC = tested on: EKVX NSCLC
HCC-2998 colon = tested on: HCC-2998 colon
HCT-116 colon = tested on: HCT-116 colon
HCT-15 colon = tested on: HCT-15 colon
HL-60(TB) leukemia = tested on: HL-60(TB) leukemia
HOP-62 NSCLC = tested on: HOP-62 NSCLC
HOP-92 NSCLC = tested on: HOP-92 NSCLC
HS 578T breast = tested on: HS 578T breast
HT29 colon = tested on: HT29 colon
IGROV1 ovarian = tested on: IGROV1 ovarian
K-562 leukemia = tested on: K-562 leukemia
KM12 colon = tested on: KM12 colon
LOX IMVI melanoma = tested on: LOX IMVI melanoma
MALME-3M melanoma = tested on: MALME-3M melanoma
MCF7 breast = tested on: MCF7 breast
MDA-MB-231 breast = tested on: MDA-MB-231 breast
MDA-MB-435 = tested on: MDA-MB-435
MDA-N = tested on: MDA-N
MOLT-4 leukemia = tested on: MOLT-4 leukemia
NCI-H226 lung = tested on: NCI-H226 lung
NCI-H23 lung = tested on: NCI-H23 lung
NCI-H460 lung = tested on: NCI-H460 lung
NCI-H522 lung = tested on: NCI-H522 lung
NCI/ADR-RES ovarian = tested on: NCI/ADR-RES ovarian
OVCAR-3 ovarian = tested on: OVCAR-3 ovarian
OVCAR-4 ovarian = tested on: OVCAR-4 ovarian
OVCAR-5 ovarian = tested on: OVCAR-5 ovarian
OVCAR-8 ovarian = tested on: OVCAR-8 ovarian
PC-3 prostate = tested on: PC-3 prostate
RPMI-8226 leukemia = tested on: RPMI-8226 leukemia
RXF 393 renal = tested on: RXF 393 renal
SF-268 CNS = tested on: SF-268 CNS
SF-295 CNS = tested on: SF-295 CNS
SF-539 CNS = tested on: SF-539 CNS
SK-MEL-2 melanoma = tested on: SK-MEL-2 melanoma
SK-MEL-28 melanoma = tested on: SK-MEL-28 melanoma
SK-MEL-5 melanoma = tested on: SK-MEL-5 melanoma
SK-OV-3 ovarian = tested on: SK-OV-3 ovarian
SN12C renal = tested on: SN12C renal
SNB-19 CNS = tested on: SNB-19 CNS
SNB-75 CNS = tested on: SNB-75 CNS
SR leukemia = tested on: SR leukemia
SW-620 colon = tested on: SW-620 colon
T-47D breast = tested on: T-47D breast
TK-10 renal = tested on: TK-10 renal
U251 CNS = tested on: U251 CNS
UACC-257 melanoma = tested on: UACC-257 melanoma
UACC-62 melanoma = tested on: UACC-62 melanoma
UO-31 renal = tested on: UO-31 renal
M14 melanoma = tested on: M14 melanoma

Measured: TGI

CC(/C=N/N(C)C1=NCCCN1)=N/N(C)C1=NCCCN1
not listed: M14 melanoma
> 100 µM: all other assays above

COC(=O)[C@@H]1C[C@@]23CCCN4CC[C@@]5(c6cccc(OC)c6N(C=O)[C@]15CC2)[C@@H]43
not listed: K-562 leukemia
> 100 µM: all other assays above

CCC1CC(C)C(O)/C=C/C=C/CC(C)OC(=O)CC(O)C(OC)C1OC1OC(C)CC(O)(C(C)=O)C1O (stereo not drawn)
66.5 µM: HCC-2998 colon
42.8 µM: OVCAR-4 ovarian
67.9 µM: MDA-MB-231 breast
42.4 µM: HL-60(TB) leukemia
51.4 µM: NCI-H522 lung
79.5 µM: SNB-19 CNS
59.8 µM: SR leukemia
not listed: K-562 leukemia | NCI-H460 lung
> 100 µM: all other assays above
